Tests used:
[1] = target: T1, Tyrosine-protein phosphatase non-receptor type 2 (Homo sapiens, UniProt P17706); experiment: Inhibition of TCPTP (unknown origin) assessed as pNPP hydrolysis after 30 mins
T1 sequence (P17706 whole entry): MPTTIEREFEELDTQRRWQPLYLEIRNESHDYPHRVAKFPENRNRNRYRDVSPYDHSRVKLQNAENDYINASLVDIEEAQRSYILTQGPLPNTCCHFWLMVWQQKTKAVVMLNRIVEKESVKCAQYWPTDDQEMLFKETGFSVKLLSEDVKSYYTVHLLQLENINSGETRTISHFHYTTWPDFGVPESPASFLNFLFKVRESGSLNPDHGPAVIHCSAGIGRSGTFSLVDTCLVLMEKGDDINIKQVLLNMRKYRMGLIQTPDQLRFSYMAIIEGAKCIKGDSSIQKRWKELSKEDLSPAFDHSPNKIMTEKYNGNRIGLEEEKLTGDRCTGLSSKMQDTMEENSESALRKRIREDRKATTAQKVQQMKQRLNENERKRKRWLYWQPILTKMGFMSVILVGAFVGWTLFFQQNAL

[2] = target: T2, Tyrosine-protein phosphatase non-receptor type 1 (Homo sapiens, UniProt P18031); experiment: Inhibition of recombinant PTP1B (unknown origin) assessed as pNPP hydrolysis after 30 mins
T2 sequence (P18031 whole entry): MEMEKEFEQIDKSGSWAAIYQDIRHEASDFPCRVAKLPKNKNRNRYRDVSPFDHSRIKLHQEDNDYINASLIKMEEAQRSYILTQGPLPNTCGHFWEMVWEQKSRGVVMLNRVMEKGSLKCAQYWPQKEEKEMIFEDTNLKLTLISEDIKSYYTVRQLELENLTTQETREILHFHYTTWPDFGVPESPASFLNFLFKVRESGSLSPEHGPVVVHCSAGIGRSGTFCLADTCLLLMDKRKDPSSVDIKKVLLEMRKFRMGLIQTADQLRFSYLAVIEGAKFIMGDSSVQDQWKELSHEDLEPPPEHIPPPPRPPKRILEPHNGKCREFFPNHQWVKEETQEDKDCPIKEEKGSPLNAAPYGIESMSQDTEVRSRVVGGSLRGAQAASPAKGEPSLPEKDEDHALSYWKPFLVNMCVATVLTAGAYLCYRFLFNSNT

[3] = target: Tyrosine-protein phosphatase non-receptor type 6 (Homo sapiens, UniProt P29350); experiment: Inhibition of SHP1 (unknown origin) using pNPP as substrate
[4] = target: T2, Tyrosine-protein phosphatase non-receptor type 1; experiment: Inhibition of human PTP1B catalytic domain expressed in Escherichia coli assessed as pNPP hydrolysis measured every 30 secs for 15 mins

Tyrosine-protein phosphatase non-receptor type 6, sequence (P29350 whole entry, the tested form may be a part): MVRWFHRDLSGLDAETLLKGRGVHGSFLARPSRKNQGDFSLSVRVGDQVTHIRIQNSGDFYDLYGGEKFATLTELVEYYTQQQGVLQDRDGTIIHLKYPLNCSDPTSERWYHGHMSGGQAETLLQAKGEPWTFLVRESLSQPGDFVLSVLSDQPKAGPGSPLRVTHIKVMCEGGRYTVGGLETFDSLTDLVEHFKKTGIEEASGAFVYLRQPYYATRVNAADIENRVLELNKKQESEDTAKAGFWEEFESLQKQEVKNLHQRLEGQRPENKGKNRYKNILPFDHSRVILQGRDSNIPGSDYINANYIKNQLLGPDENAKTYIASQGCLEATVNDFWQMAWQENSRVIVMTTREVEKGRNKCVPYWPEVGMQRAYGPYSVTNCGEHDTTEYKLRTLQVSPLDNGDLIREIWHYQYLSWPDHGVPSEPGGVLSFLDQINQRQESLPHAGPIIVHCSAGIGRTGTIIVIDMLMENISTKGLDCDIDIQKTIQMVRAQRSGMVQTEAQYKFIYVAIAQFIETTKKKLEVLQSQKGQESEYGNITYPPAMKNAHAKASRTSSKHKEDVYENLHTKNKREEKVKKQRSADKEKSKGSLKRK

CCOc1cc(NS(C)(=O)=O)c(OCC)cc1CNC(=O)Nc1ccc(C)cc1
IC50 [1]: 5190 nM | IC50 [2]: 309 nM

CCOc1cc(NS(C)(=O)=O)c(OCC)cc1CNC(=O)Nc1ccc(OC)c(OC)c1
IC50 [2]: 204 nM

CCOc1cc(NS(C)(=O)=O)c(OCC)cc1CNC(=O)Nc1ccc(Br)cc1
IC50 [1]: 1360 nM | IC50 [2]: 212 nM | IC50 [3]: 2310 nM

CCOc1cc(NS(C)(=O)=O)c(OCC)cc1CNC(=O)Nc1ccccc1
IC50 [2]: 537 nM

CCOc1cc(NS(C)(=O)=O)c(OCC)cc1CNC(=O)NCc1ccccc1
IC50 [2]: 756 nM

CCOc1cc(NS(C)(=O)=O)c(OCC)cc1CNC(=O)Nc1ccc(OC)cc1
IC50 [2]: 203 nM | IC50 [3]: 9080 nM

NC(=O)[C@H](Cc1ccc(C(F)(F)P(=O)(O)O)cc1)NC(=O)[C@H](Cc1ccccc1)NC(=O)Cc1ccc(C(F)(F)P(=O)(O)O)cc1
Ki [4]: 1.7 nM

CCOc1cc(NS(C)(=O)=O)c(OCC)cc1CNC(=O)Nc1cccc(OC)c1
IC50 [2]: 2730 nM
